The source of these data is US20240270762A1, “PENICILLIN-BINDING PROTEIN INHIBITORS” (priority 2021, published 2024).

The test system of experiment [1] is N. gonorrhoeae WHO M. Description: Liquid broth MIC in Fastidious broth. Conditions: Neisseria gonorrhoeae, read-out: Minimum Inhibitory Concentration (MIC), N. gonorrhoeae WHO M.
Protocol: Liquid broth-based assays were used for antibacterial testing of PBP inhibitors in Neisseria gonorrhoeae. Briefly, cryo-preserved bacterial cultures of clinical strains were streaked for isolation on Chocolate Agar (72 g/L (2×) GC Agar Base (BD #228950) and 2% (2×) Hemoglobin was autoclaved at 121° C. for 20 minutes to sterilize. Once cooled to ˜50° C. the 2×GC Agar Base and 2× Hemoglobin solutions are combined and 1% IsoVitaleX Enrichment (BD #211876) was added to the solution). Strains were incubated at 36° C. and 5% CO2 to allow growth of colonies, 24 hours before inoculum preparation. 2-fold serial dilutions of test compounds were conducted in a 96 well plate with a final volume of 75 μL per well at 2-fold the final desired concentration in Fastidious broth (Remel #R07664). For preparation of assay inoculum, a direct suspension was prepared by aseptically swabbing 10-15 colonies from agar plates into culture tubes containing 2 mL of fresh sterile saline. After the dilution plates were set up, direct suspensions were then diluted in a cuvette containing sterile saline and the optical density was measured at 600 nm. Inocula were diluted such that 75 μL of this culture in Fastidious broth results in a starting bacterial concentration of 5×10^5 CFU/mL when added to the dilution plates. The plates were incubated for ˜24 hours at 36° C. and 5% CO2.
Experiment [2] concerns N. gonorrhoeae WHO G. Description: Liquid broth MIC in Fastidious broth. As to conditions: Neisseria gonorrhoeae, read-out: Minimum Inhibitory Concentration (MIC), N. gonorrhoeae WHO G.
For experiment [3], the system named is N. gonorrhoeae MS11. In words: Liquid broth MIC in Fastidious broth. Conditions: Neisseria gonorrhoeae, MS11, read-out: Minimum Inhibitory Concentration (MIC), N. gonorrhoeae MS11.
Experiment [4] has as its system P. aeruginosa (ΔmexAB-oprM). Description: Broth microdilution MIC in CAMHB. In kind it is cell-based. As to conditions: Pseudomonas aeruginosa; read-out: MIC P. aeruginosa ΔmexAB-oprM. A general note: In broth dilution the organism is exposed to a series of concentrations in liquid medium.
For experiment [5], the system named is E. coli D22. Description: microbe, parasite or virus in culture. Conditions: Escherichia coli, D22, read-out: MIC E. coli D22. It counts as cell-based.

Molecules are shown by their SMILES. Converted amounts (≈) assume the structure as drawn.

With `Nc1ncc(C(=O)N[C@@H](C(=O)N[C@H]2Cc3cccc(C(=O)O)c3OB2O)c2ccc(P(=O)(O)O)cc2)s1` (racemic) [Example 50, (R)-3-((S)-2-(2-aminothiazole-5-carboxamido)-2-(4-phosphonophenyl)acetamido)-2-hydroxy-3,4-dihydro-2H-benzo[e][1,2]oxaborinine-8-carboxylic acid and (R)-3-((R)-2-(2-aminothiazole-5-carboxamido)-2-(4-phosphonophenyl)acetamido)-2-hydroxy-3,4-dihydro-2H-benzo[e][1,2]oxaborinine-8-carboxylic acid], the MIC in experiment [1] fell in the range of 1 to 2 µg/mL (≈ 1.83 to 3.66 µM); in experiment [2], 1 to 2 µg/mL (≈ 1.83 to 3.66 µM); in experiment [3], 4 to 8 µg/mL (≈ 7.32 to 14.6 µM); in experiment [4], 32 to 64 µg/mL (≈ 58.6 to 117 µM); in experiment [5] it was 32 to 64 µg/mL (≈ 58.6 to 117 µM).
For the compound `CN1CCC[C@@H]1C(=O)N[C@@H](C(=O)N[C@H]1Cc2cccc(C(=O)O)c2OB1O)c1ccc(P(=O)(O)O)cc1` (racemic) [Example 54, (R)-2-hydroxy-3-((S)-2-((R)-1-methylpyrrolidine-2-carboxamido)-2-(4-phosphonophenyl)acetamido)-3,4-dihydro-2H-benzo[e][1,2]oxaborinine-8-carboxylic acid and (R)-2-hydroxy-3-((R)-2-((R)-1-methylpyrrolidine-2-carboxamido)-2-(4-phosphonophenyl)acetamido)-3,4-dihydro-2H-benzo[e][1,2]oxaborinine-8-carboxylic acid], the MIC in experiment [1] is 4 to 8 µg/mL (≈ 7.53 to 15.1 µM); in experiment [2], 16 to 32 µg/mL (≈ 30.1 to 60.2 µM); in experiment [3], 16 to 32 µg/mL (≈ 30.1 to 60.2 µM); in experiment [4], > 128 µg/mL; in experiment [5] it was > 128 µg/mL.
For the compound `CCN1CCN(C(=O)N[C@H](C(=O)N[C@H]2Cc3ccc(F)c(C(=O)O)c3OB2O)c2ccc(P(=O)(O)O)cc2)C(=O)C1=O` (single isomer, unassigned) [Example 9], the MIC in experiment [1] is < 1 µg/mL; in experiment [2], < 1 µg/mL; in experiment [3], 1 to 2 µg/mL (≈ 1.65 to 3.3 µM); in experiment [4], > 128 µg/mL; in experiment [5] it was 32 to 64 µg/mL (≈ 52.8 to 106 µM).
In the case of `Cn1cccc(C(=O)N[C@H](C(=O)N[C@H]2Cc3cccc(C(=O)O)c3OB2O)c2ccc(P(=O)(O)O)cc2)c1=O` (single isomer, unassigned) [Example 181], the MIC in experiment [1] was 16 to 32 µg/mL (≈ 28.8 to 57.6 µM); in experiment [2], 4 to 8 µg/mL (≈ 7.2 to 14.4 µM); in experiment [3], 4 to 8 µg/mL (≈ 7.2 to 14.4 µM); in experiment [4], > 128 µg/mL; in experiment [5], > 128 µg/mL.
With `O=C(O)c1cccc2c1OB(O)[C@@H](NC(=O)[C@@H](NC(=O)c1cccn(C(F)F)c1=O)c1ccc(P(=O)(O)O)cc1)C2` (single isomer, unassigned) [Example 190], the MIC lay within 1 to 2 µg/mL (≈ 1.69 to 3.38 µM) in experiment [1]; 1 to 2 µg/mL (≈ 1.69 to 3.38 µM) in experiment [2]; 4 to 8 µg/mL (≈ 6.77 to 13.5 µM) in experiment [3]; 32 to 64 µg/mL (≈ 54.1 to 108 µM) in experiment [4]; 32 to 64 µg/mL (≈ 54.1 to 108 µM) in experiment [5].
On to `O=C(O)c1cccc2c1OB(O)[C@@H](NC(=O)[C@H](NC(=O)c1cccn(C(F)F)c1=O)c1ccc(P(=O)(O)O)cc1)C2` (single isomer, unassigned) [Example 191], for which the MIC in experiment [1] is < 1 µg/mL; in experiment [2], < 1 µg/mL; in experiment [3], 1 to 2 µg/mL (≈ 1.69 to 3.38 µM); in experiment [4], 8 to 16 µg/mL (≈ 13.5 to 27.1 µM); in experiment [5], 8 to 16 µg/mL (≈ 13.5 to 27.1 µM).
On to `O=C(O)c1cccc2c1OB(O)[C@@H](NC(=O)[C@@H](NC(=O)c1cnc3sccn3c1=O)c1ccc(P(=O)(O)O)cc1)C2` (single isomer, unassigned) [Example 194], for which the MIC in experiment [1] was in the range of 4 to 8 µg/mL (≈ 6.69 to 13.4 µM); in experiment [2] it was 4 to 8 µg/mL (≈ 6.69 to 13.4 µM); in experiment [3] it was 4 to 8 µg/mL (≈ 6.69 to 13.4 µM); in experiment [4], 32 to 64 µg/mL (≈ 53.5 to 107 µM); in experiment [5] it was 32 to 64 µg/mL (≈ 53.5 to 107 µM).
`O=C(O)c1cccc2c1OB(O)[C@@H](NC(=O)[C@H](NC(=O)c1cnc3sccn3c1=O)c1ccc(P(=O)(O)O)cc1)C2` (single isomer, unassigned) [Example 195]: the MIC in experiment [1] is 1 to 2 µg/mL (≈ 1.67 to 3.34 µM); in experiment [2] it was 1 to 2 µg/mL (≈ 1.67 to 3.34 µM); in experiment [3], 4 to 8 µg/mL (≈ 6.69 to 13.4 µM); in experiment [4] it was 8 to 16 µg/mL (≈ 13.4 to 26.7 µM); in experiment [5] it was 8 to 16 µg/mL (≈ 13.4 to 26.7 µM).
With `O=C(O)c1cccc2c1OB(O)[C@@H](NC(=O)C(NC(=O)[C@H]1CCCN1)c1ccc(P(=O)(O)O)cc1)C2` (stereo partly drawn) [Example 52, (3R)-2-hydroxy-3-(2-(4-phosphonophenyl)-2-((R)-pyrrolidine-2-carboxamido)acetamido)-3,4-dihydro-2H-benzo[e][1,2]oxaborinine-8-carboxylic acid], the MIC was 16 to 32 µg/mL (≈ 30.9 to 61.9 µM) in experiment [1]; 16 to 32 µg/mL (≈ 30.9 to 61.9 µM) in experiment [2]; 16 to 32 µg/mL (≈ 30.9 to 61.9 µM) in experiment [3]; > 128 µg/mL in experiment [4]; 32 to 64 µg/mL (≈ 61.9 to 124 µM) in experiment [5].
As for `O=C1CC[C@H](C(=O)NC(C(=O)N[C@H]2Cc3cccc(C(=O)O)c3OB2O)c2ccc(P(=O)(O)O)cc2)N1` (stereo partly drawn) [Example 53, (3R)-2-hydroxy-3-(2-((R)-5-oxopyrrolidine-2-carboxamido)-2-(4-phosphonophenyl)acetamido)-3,4-dihydro-2H-benzo[e][1,2]oxaborinine-8-carboxylic acid], the MIC in experiment [1] is 1 to 2 µg/mL (≈ 1.88 to 3.76 µM); in experiment [2] it was 1 to 2 µg/mL (≈ 1.88 to 3.76 µM); in experiment [3] it was 1 to 2 µg/mL (≈ 1.88 to 3.76 µM); in experiment [4], > 128 µg/mL; in experiment [5] it was 32 to 64 µg/mL (≈ 60.2 to 120 µM).
Take `O=C(O)c1cccc2c1OB(O)[C@@H](NC(=O)C(NC(=O)N1CCCNC1=O)c1ccc(P(=O)(O)O)cc1)C2` (stereo partly drawn) [Example 56, (3R)-2-hydroxy-3-(2-(2-oxohexahydropyrimidine-1-carboxamido)-2-(4-phosphonophenyl)acetamido)-3,4-dihydro-2H-benzo[e][1,2]oxaborinine-8-carboxylic acid]: the MIC is < 1 µg/mL in experiment [1]; 1 to 2 µg/mL (≈ 1.83 to 3.66 µM) in experiment [2]; 1 to 2 µg/mL (≈ 1.83 to 3.66 µM) in experiment [3]; > 128 µg/mL in experiment [4]; 8 to 16 µg/mL (≈ 14.6 to 29.3 µM) in experiment [5].
Consider `NS(=O)(=O)NC(C(=O)N[C@H]1Cc2cccc(C(=O)O)c2OB1O)c1ccc(P(=O)(O)O)cc1` (stereo partly drawn) [Example 58, (3R)-2-hydroxy-3-(2-(4-phosphonophenyl)-2-(sulfamoylamino)acetamido)-3,4-dihydro-2H-benzo[e][1,2]oxaborinine-8-carboxylic acid], for which the MIC in experiment [1] was 16 to 32 µg/mL (≈ 32.1 to 64.1 µM); in experiment [2], 16 to 32 µg/mL (≈ 32.1 to 64.1 µM); in experiment [3], 16 to 32 µg/mL (≈ 32.1 to 64.1 µM); in experiment [4], > 128 µg/mL; in experiment [5] it was > 128 µg/mL.
Take `CS(=O)(=O)NC(C(=O)N[C@H]1Cc2cccc(C(=O)O)c2OB1O)c1ccc(P(=O)(O)O)cc1` (stereo partly drawn) [Example 59, (3R)-2-hydroxy-3-(2-(methylsulfonamido)-2-(4-phosphonophenyl)acetamido)-3,4-dihydro-2H-benzo[e][1,2]oxaborinine-8-carboxylic acid]: the MIC was 4 to 8 µg/mL (≈ 8.03 to 16.1 µM) in experiment [1]; 16 to 32 µg/mL (≈ 32.1 to 64.2 µM) in experiment [2]; 16 to 32 µg/mL (≈ 32.1 to 64.2 µM) in experiment [3]; > 128 µg/mL in experiment [4]; > 128 µg/mL in experiment [5].
In the case of `CC(C)S(=O)(=O)NC(C(=O)N[C@H]1Cc2cccc(C(=O)O)c2OB1O)c1ccc(P(=O)(O)O)cc1` (stereo partly drawn) [Example 60, (3R)-2-hydroxy-3-(2-((1-methylethyl)sulfonamido)-2-(4-phosphonophenyl)acetamido)-3,4-dihydro-2H-benzo[e][1,2]oxaborinine-8-carboxylic acid], the MIC was 4 to 8 µg/mL (≈ 7.6 to 15.2 µM) in experiment [1]; 16 to 32 µg/mL (≈ 30.4 to 60.8 µM) in experiment [2]; 16 to 32 µg/mL (≈ 30.4 to 60.8 µM) in experiment [3]; > 128 µg/mL in experiment [4]; > 128 µg/mL in experiment [5].
In the case of `O=C(O)c1cccc2c1OB(O)[C@@H](NC(=O)C(NS(=O)(=O)C1CC1)c1ccc(P(=O)(O)O)cc1)C2` (stereo partly drawn) [Example 61, (3R)-3-(2-(cyclopropanesulfonamido)-2-(4-phosphonophenyl)acetamido)-2-hydroxy-3,4-dihydro-2H-benzo[e][1,2]oxaborinine-8-carboxylic acid], the MIC in experiment [1] was 16 to 32 µg/mL (≈ 30.5 to 61 µM); in experiment [2], 16 to 32 µg/mL (≈ 30.5 to 61 µM); in experiment [3], 16 to 32 µg/mL (≈ 30.5 to 61 µM); in experiment [4], > 128 µg/mL; in experiment [5], > 128 µg/mL.
In the case of `O=C1CC[C@@H](C(=O)NC(C(=O)N[C@H]2Cc3cccc(C(=O)O)c3OB2O)c2ccc(P(=O)(O)O)cc2)N1` (stereo partly drawn) [Example 64, (3R)-2-hydroxy-3-(2-((S)-5-oxopyrrolidine-2-carboxamido)-2-(4-phosphonophenyl)acetamido)-3,4-dihydro-2H-benzo[e][1,2]oxaborinine-8-carboxylic acid], the MIC in experiment [1] is 1 to 2 µg/mL (≈ 1.88 to 3.76 µM); in experiment [2], 4 to 8 µg/mL (≈ 7.53 to 15.1 µM); in experiment [3], 4 to 8 µg/mL (≈ 7.53 to 15.1 µM); in experiment [4], > 128 µg/mL; in experiment [5], 32 to 64 µg/mL (≈ 60.2 to 120 µM).
As to `CC(=O)N1CCC[C@H]1C(=O)NC(C(=O)N[C@H]1Cc2cccc(C(=O)O)c2OB1O)c1ccc(P(=O)(O)O)cc1` (stereo partly drawn) [Example 65, (3R)-3-(2-((S)-1-acetylpyrrolidine-2-carboxamido)-2-(4-phosphonophenyl)acetamido)-2-hydroxy-3,4-dihydro-2H-benzo[e][1,2]oxaborinine-8-carboxylic acid], the MIC is 4 to 8 µg/mL (≈ 7.15 to 14.3 µM) in experiment [1]; 16 to 32 µg/mL (≈ 28.6 to 57.2 µM) in experiment [2]; 16 to 32 µg/mL (≈ 28.6 to 57.2 µM) in experiment [3]; > 128 µg/mL in experiment [4]; > 128 µg/mL in experiment [5].
For `CN1CCC[C@H]1C(=O)NC(C(=O)N[C@H]1Cc2cccc(C(=O)O)c2OB1O)c1ccc(P(=O)(O)O)cc1` (some centres unmarked) [Example 66], the MIC is 4 to 8 µg/mL (≈ 7.53 to 15.1 µM) in experiment [1]; 4 to 8 µg/mL (≈ 7.53 to 15.1 µM) in experiment [2]; 16 to 32 µg/mL (≈ 30.1 to 60.2 µM) in experiment [3]; 32 to 64 µg/mL (≈ 60.2 to 120 µM) in experiment [4]; 32 to 64 µg/mL (≈ 60.2 to 120 µM) in experiment [5].
Take `O=C(O)c1cccc2c1OB(O)[C@@H](NC(=O)C(NC(=O)C(F)(F)F)c1ccc(P(=O)(O)O)cc1)C2` (stereo partly drawn) [Example 172, (3R)-2-hydroxy-3-(2-(4-phosphonophenyl)-2-(2,2,2-trifluoroacetamido)acetamido)-3,4-dihydro-2H-benzo[e][1,2]oxaborinine-8-carboxylic acid]: the MIC in experiment [1] was 4 to 8 µg/mL (≈ 7.75 to 15.5 µM); in experiment [2], 16 to 32 µg/mL (≈ 31 to 62 µM); in experiment [3] it was 16 to 32 µg/mL (≈ 31 to 62 µM); in experiment [4], > 128 µg/mL; in experiment [5] it was > 128 µg/mL.
